Structures are written as SMILES. Bounds are passed on as bounds.

Series [1] can be described thus: Safety pharmacology: effects on the respiratory system in rats. The series is classed as in vivo. The settings on record: single oral 100, 300 and 600 mg/kg. On the procedure:
Effects on the Respiratory System in Rats (Study no. YL18404). Four groups of eight male rats were given a single oral administration of STP0404 at doses of 100, 300 and 600 mg/kg. STP0404 was administered as a suspension in 0.5% MC in a volume of 10 mL/kg. […] Measurements were conducted at pre-dosing and 0.5, 1, 3, 6 12 and 24 hrs post-dosing, and respiratory rate, tidal volume and minute volume were investigated (INA Research, Japan). Effects on the Central Nervous System in Rats (Study no. YL18405). Four groups of six male rats were given a single oral administration of STP0404 at doses of 0 (vehicle), 100, 300 and 600 mg/kg. The test article was administered as a suspension in 0.5% MC in a volume of 10 mL/kg. […] Blinded observations were conducted pre-dosing and 0.5, 1, 3, 6, 12 and 24 hrs post-dosing on rats body temperature, pupil size, landing foot-splay and grip strength in functional observational battery. Effects on the Cardiovascular System in Dogs (Study no. YL18406). STP0404 at dose levels of 30, 60 and 90 mg/kg were administered orally (by capsules) to four male Beagle dogs in a design with 7-day intervals between doses. Heart rate, blood pressure (systolic, diastolic and mean) and electrocardiographic (ECG) parameters (PR, QT and QTc intervals and QRS duration) were evaluated at pre-dosing and 0.5, 1, 2, 4, 8 and 24 hrs post-dosing. […]

The subject of series [2] is HIV-1 GFP vector in pre-treated Jurkat cells. Briefly: HIV-1 inhibition in infecting cells (early stage). The series is classed as cell-based. The settings on record: 60 nM in Jurkat cells; vector from untreated 293T cells. On the procedure: To test for STP0404’s inhibitory effects during the late stage of HIV-1 life cycle such as the maturation step, we employed the “producing cells” setup. In T75 tissue culture flasks, 293T cells were pre-treated with and without STP0404 (0 and 60 nM) for 2 hrs prior to transfection with pD3-HIV (13 μg) and pVSV-g (6 μg), using 0.3 mg/ml polyethylenimine. After 24 hrs incubation at 37°C, the supernatant was removed and replaced with fresh media with and without STP0404 (0 and 60 nM). 48 hrs later, D3-HIV vector from each treatment group was concentrated from the collected supernatant via ultracentrifugation (22,000 rpm for 2 hrs). Following p24 quantification, using 96-well plates, similar amount of respective D3-HIV vector was used to transduce Jurkat cells in triplicates for 48 hrs. The cells were harvested and fixed with 3.7% formaldehyde before being analyzed for GFP expression using FACS (Miltenyi Biotec, VYB). Separately, the “infecting cells” setup was used to investigate the inhibitory effects of STP0404 against the early stages of HIV-1 life cycle such as the integration and transcription steps. […] All data were analyzed using GraphPad Prism (Version 9). Unpaired t tests were performed to determine the significance of the readings in respective experimental set up relative to the untreated controls. […]

A further series concerns human PBMCs. Description: Tissue culture cytotoxicity measurement in human PBMCs. The series is classed as cell-based. The source says:
Multiple chemical scaffolds such as quinoline (BI224436, Fig 1A), benzothiazole (GS-9822, Fig 1B) and pyridine (KF116, Fig 1C) were previously explored for the discovery of ALLINIs. Here, we employed the pyrrolopyridine-based scaffold to synthesize an ALLINI candidate compound, STP0404 (Fig 1D). STP0404 harbors the tert-butoxy moiety that is common to other ALLINIs (Fig 1). First, we measured its in vitro anti-HIV-1 efficacy and cytotoxicity using various HIV-1 strains in multiple cell types, with cytotoxicity initially tested up to 10 μM (Table 1). […] The calculated in vitro minimum therapeutic index (TI) of STP0404 under these conditions was accordingly >25,000. For comparison, we employed two FDA-approved HIV-1 inhibitors, AZT (RT inhibitor) and Raltegravir (Ral, INSTI), alongside 5 different Ral-resistant clinical isolates (Table 1).

Another series concerns HIV-1_89.6. Description: In vitro anti-viral assay in CEMx174 cells (p24). The series is classed as cell-based. The procedure: CEMx174 cells were infected with HIV-1 primary isolate 89.6 (From infectious clone p89.6, NIH AIDS Reagent Program) at approximately at 10% of cell population determined by FACS analyses. To determine antiviral activity during virus production, STP0404 was added at concentration in the range of 0.1 nM—10 μM during media exchange at 4 hrs post-infection. DMSO was used as a negative control. Cell-free supernatants were measured for p24 antigen production, 5 days post-infection. The anti-HIV-1 efficacy of the two enantiomers of STP0404 were also determined by using the same protocol. All assays were conducted in triplicates. The IC50 values were computed using GraphPad Prism (Version 9) and presented as means ± S.D. of the triplicates. For SIVmac239, CEMx174 cells were infected with viral supernatant containing SIVmac293 at 50,000 TCID50/mL (kind gift from Dr. G. Silvestri, Emory Yerkes National Primate Research Center) with 100 μL/10^6 cells at varying concentrations of STP0404, BI224436, and Raltegravir, and the same above protocol was followed except for that p27 capsid antigen content was measured daily for 5 days post infection.

Another series has as its system HIV-1 NL4-3. Description: In vitro anti-viral assay in MT4 cells. The series is classed as cell-based.
Another series relates to cytochrome P450 enzymes. Briefly: Cytochrome P450 inhibition assay in human liver microsomes. The series is classed as in vitro ADME. As to conditions: 8 different cytochrome P450 enzymes. On the procedure:
The final concentrations of test article in incubation system were 0, 0.15, 0.5, 1.5, 5, 15 and 50 μM. The inhibition of CYP1A2, 2B6, 2C8, 2C9, 2C19, 2D6, and 3A4 in human liver microsomes was measured as the percentage decrease in the activity of marker metabolite formation compared to non-inhibited controls (= 100% activity). The rate of formation of isoform-specific metabolites derived from marker substrates were measured by UPLC-MS/MS. The IC50 values were calculated with the metabolites decrease percentages of test samples to vehicle samples. All incubations were performed in triplicate (Pharmaron, China).

Setting [3] is: Human immunodeficiency virus 1, CEMx174.

Turning to `Cc1nc2c(c(C)c(C)n2Cc2cnn(C)c2)c(-c2ccc(Cl)cc2)c1[C@H](OC(C)(C)C)C(=O)O` [STP0404], the “safety pharmacology concerns, respiratory system” value in series [1] is “did not induce any safety pharmacology concerns”. Moreover, the “transduction efficiency, infecting cells” value in series [2] is “no reduction in transduction efficiency”. Besides, the TC50 with human PBMCs (human) is >10,000 nM; in the series on human PBMCs (human PBMCs, NL4-3, tested up to 10 μM), >10,000 nM; in the series with human PBMCs (human PBMCs, no observable cytotoxicity at 10 μM) it was over 10 µM. In addition, the entries for the “TI (TC50 / IC50)” value in the series on HIV-1_89.6 (HIV-1 89.6 / CEMx174 cells) and with HIV-1 NL4-3 (HIV-1 NL4-3 / MT4 cells) were > 7,140 and > 6,020, respectively. For the same compound, the concentration for half-maximal inhibition (IC50) in the series with HIV-1_89.6 (setting [3]) came out at 1.4 nM; in the series with HIV-1 NL4-3 (Human immunodeficiency virus 1, NL43, MT4) it was 1.66 ± 0.32 nM. This compound also returned an IC90 in the series on HIV-1_89.6 (setting [3]) of 21 nM. The “inhibition of cytochrome P450 enzymes (in words)” value in the series on cytochrome P450 enzymes is on record as “low (high μM) or no inhibition (NI)”.

(Values after publication PMC8297771 (PLoS Pathogens, 2021).)
